ChEMBL document CHEMBL3808296, “A combined in silico/in vitro approach unveils common molecular requirements for efficient BVDV RdRp binding of linear aromatic N-polycyclic systems” (Eur J Med Chem, 2016)

Tested on: not listed separately
Assay: Antiviral activity against BVDV NADL infected in MDBK cells assessed as inhibition of virus induced cytopathogenicity after 3 to 4 days by MTT assay
Assay type: functional, cell-based, Bovine viral diarrhea virus 1-NADL
Conditions: Bovine viral diarrhea virus isolates and strains

**Q.** Which EC50 does the source give for `O=c1[nH]c2cc3cccnc3c(Cl)c2nc1-c1cccs1` here?
**A.** Its EC50 is 5 µM.

**Q.** Which EC50 does the source give for `N#Cc1ccc(/C=N/c2cc3cccnc3c(Cl)c2N)cc1` here?
**A.** The EC50 was 2 µM.

**Q.** With `COc1nc2cc3cccnc3c(Cl)c2nc1-c1cccs1` as the compound, how does the EC50 read?
**A.** Its EC50 is 1.3 µM.

**Q.** Which EC50 does the source give for `O=c1cnc2c(Cl)c3ncccc3cc2[nH]1` here?
**A.** The EC50 was over 100 µM.

**Q.** Which EC50 does the source give for `CC(=O)c1ccc(-c2nc3ccncc3[nH]2)cc1` here?
**A.** The EC50 was 7 µM.

**Q.** With `Nc1c(/N=C/c2ccc([N+](=O)[O-])cc2)cc2cccnc2c1Cl` as the compound, how does the EC50 read?
**A.** Its EC50 is 1.7 µM.

**Q.** Which EC50 does the source give for `CC(=O)c1ccc(-c2nc3cccnc3[nH]2)cc1` here?
**A.** Its EC50 is over 100 µM.

**Q.** With `CC(C)c1nc2c(Cl)c3ncccc3cc2[nH]c1=O` as the compound, how does the EC50 read?
**A.** Its EC50 is over 100 µM.

**Q.** For `CCn1c(=O)c(-c2ccccc2)nc2c(Cl)c3ncccc3cc21`, which EC50 is on record?
**A.** The EC50 was over 100 µM.

**Q.** For `COc1ccc(-c2nc3cc(/C(C)=N/NC(N)=S)ccc3[nH]2)c(OC)c1`, which EC50 is on record?
**A.** Its EC50 is 0.002 µM.

**Q.** Which EC50 does the source give for `COc1nc2cc3cccnc3c(Cl)c2nc1C(C)C` here?
**A.** Its EC50 is over 100 µM.

**Q.** For `N#Cc1ccc(-c2nc3ccncc3[nH]2)cc1`, which EC50 is on record?
**A.** Its EC50 is 9 µM.

Tested on: not listed separately
Assay: Inhibition of His tagged BVDV NS5B Cdelta24 RNA dependent RNA polymerase expressed in Escherichia coli Rosetta DE3 preincubated for 30 mins followed by addition of GTP measured after 120 mins by fluorescence analysis
Set-up: species or system Bovine viral diarrhea virus 1
Conditions: not given

**Q.** With `COc1nc2cc3cccnc3c(Cl)c2nc1-c1cccs1` as the compound, how does the IC50 read?
**A.** The IC50 was 0.64 µM.

**Q.** With `CC(=O)c1ccc(-c2nc3ccncc3[nH]2)cc1` as the compound, how does the IC50 read?
**A.** The IC50 was 11 µM.

**Q.** With `Nc1c(/N=C/c2ccc([N+](=O)[O-])cc2)cc2cccnc2c1Cl` as the compound, how does the IC50 read?
**A.** The IC50 was 0.81 µM.

**Q.** Which IC50 does the source give for `O=[N+]([O-])c1c2cccnc2c(Cl)c2[nH]nnc12` here?
**A.** Its IC50 is 9 µM.

Tested on: Vaccinia virus
Assay: Antiviral activity against Vaccinia virus Elstree infected in Vero 76 cells after 3 days by crystal violet staining based plaque reduction assay
Assay type: functional, organism-based
Conditions: Orthopoxvirus vaccinia, Vero 76, 72 h

**Q.** For `Nc1nc2c(ncn2COCCO)c(=O)[nH]1` [ACYCLOVIR], which EC50 is on record?
**A.** Its EC50 is 1.5 µM.

Tested on: not listed separately
Assay: Cytotoxicity against mock-infected african green monkey Vero 76 cells assessed as reduction in cell viability after 48 to 96 hrs by MTT assay
Assay type: cell-based
Conditions: chlorocebus sabaeus, mock-infected Vero 76 cells

**Q.** For `COc1c(C)c2c(c(O)c1C/C=C(\C)CCC(=O)O)C(=O)OC2` [MYCOPHENOLIC ACID], which CC50 is on record?
**A.** The CC50 was over 12.5 µM.

**Q.** For `O=c1cnn([C@@H]2O[C@H](CO)[C@@H](O)[C@H]2O)c(=O)[nH]1` [6-AZAURIDINE], which CC50 is on record?
**A.** Its CC50 is over 12.5 µM.

**Q.** With `C#C[C@@]1(O)[C@H](O)[C@@H](CO)O[C@H]1n1ccc(N)nc1=O` [2'-ETHYNYL-D-CYTIDINE] as the compound, how does the CC50 read?
**A.** Its CC50 is over 100 µM.

**Q.** With `Nc1nc2c(ncn2COCCO)c(=O)[nH]1` [ACYCLOVIR] as the compound, how does the CC50 read?
**A.** Its CC50 is over 100 µM.

Tested on: not listed separately
Assay: Inhibition of His tagged BVDV NS5B Cdelta24 RNA dependent RNA polymerase K263A mutant expressed in Escherichia coli Rosetta DE3 preincubated for 30 mins followed by addition of GTP measured after 120 mins by fluorescence analysis
Set-up: species or system Bovine viral diarrhea virus 1
Conditions: not given

**Q.** Which IC50 does the source give for `COc1nc2cc3cccnc3c(Cl)c2nc1-c1cccs1` here?
**A.** Its IC50 is 0.96 µM.

**Q.** With `CC(=O)c1ccc(-c2nc3ccncc3[nH]2)cc1` as the compound, how does the IC50 read?
**A.** The IC50 was 15 µM.

**Q.** For `Nc1c(/N=C/c2ccc([N+](=O)[O-])cc2)cc2cccnc2c1Cl`, which IC50 is on record?
**A.** Its IC50 is 1 µM.

**Q.** For `O=[N+]([O-])c1c2cccnc2c(Cl)c2[nH]nnc12`, which IC50 is on record?
**A.** The IC50 was 140 µM.

Tested on: Coxsackievirus B2
Assay: Antiviral activity against CVB-2 infected in Vero 76 cells after 3 days by crystal violet staining based plaque reduction assay
Assay type: functional, organism-based
Conditions: Enterovirus B, Vero 76, 72 h

**Q.** Which EC50 does the source give for `C#C[C@@]1(O)[C@H](O)[C@@H](CO)O[C@H]1n1ccc(N)nc1=O` [2'-ETHYNYL-D-CYTIDINE] here?
**A.** Its EC50 is 27 µM.

Tested on: not listed separately
Assay: Cytotoxicity against mock-infected BHK21 cells assessed as reduction in cell viability after 72 hrs by MTT assay
Assay type: cell-based, Mesocricetus auratus, BHK-21
Conditions: hamster

**Q.** Which CC50 at 72 h does the source give for `C[C@@]1(O)[C@H](O)[C@@H](CO)O[C@H]1n1ccc(N)nc1=O` here?
**A.** The CC50 at 72 h was over 100 µM.
